US20090227617A1, “Esters Of Glucuronide Prodrugs Of Anthracyclines And Method Of Preparation And Use In Tumor-Selective Chemotherapy” (Pharmachemie B.V., priority 2008, published 2009)
Read-outs that look alike come from different tables or passages of the source.

Experiments:
[1] = has to be administered in a vehicle containing Cremophore EL; cited from earlier work
carboxyl esterases [2] = settings: mouse plasma; cited from earlier work
[3] = cited from earlier work
[4] = Hydrolysis of prodrug esters in phosphate buffer pH 7.33, followed by reverse phase TLC; assay type: physicochemical; settings: phosphate buffer pH=7.33, room temperature
From the text: hydrolyze faster than alkyl esters like DOX-mGA3 due to the better leaving ability of the ester group of 1. This is caused by the electron-withdrawing properties of the triazol functionality. Indeed in a phosphate buffer with pH=7.33 it took 24 hrs at room temperature before DOX-mGA3 was completely hydrolyzed. The DOX derivatives of 1 with n=7 or 12 and x=1 (DOX-mPEG7GA3 and DOX-mPEG12GA3) were, nevertheless, already hydrolyzed within 4 hrs under these circumstances.
The hydrolysis of the DOX esters were qualitatively followed with reverse phase TLC (RP18). With eluens acetonitril/water: 42/58 in a phosphate buffer (KH2PO4/Na2HPO4) of pH=7.33.
DOX-mGA3 0.29 mg was dissolved in 1 ml of buffer together with some drops of DMSO to keep the DOX-mGA3 dissolved. It took 24 hrs before the starting compound had disappeared.
In the same way the hydrolysis of DOX-triazol esters 1 (n=, 7 and 12, x=1) were followed for 0.35 mg/ml and 0.45 mg/ml buffer. Both esters were completely hydrolyzed within 4 hrs.

Solubility in water = assay type: physicochemical
Procedure: For DOX-triazol ester 1 (DOX-mPEG4GA3) about 0.6 mg prodrug dissolve in 1 ml of water whereas for DOX-mPEG7GA3 already 2.5 mg dissolve in 1 ml of water and for DOX-mPEG12GA3 this has reached more than 15 mg in 1 ml of water.

carboxyl esterases [5] = settings: human plasma; cited from earlier work
OVCAR-3 cells = assay: In vitro antiproliferative effects in OVCAR-3 cells (crystal violet assay), with or without bovine beta-glucuronidase (GUS); assay type: cell-based, human; settings: for IC50: 3 days incubation; for toxicity compared with doxorubicin: in the presence of GUS
Procedure: The toxicity of the prodrugs was tested with OVCAR-3 cells. The cells were incubated for 3 days with the different prodrugs DOX-alGA3, DOX-mPEG4-GA3, DOX-mPEG7-GA3, and for comparison also with Doxorubicin, in fetal bovine serum (FBS), in the presence or absence of bovine beta-glucuronidase (GUS).
The concentrations used for the prodrugs ranged from 0.001 μM to 50 μM.
In vitro antiproliferative effects in OVCAR-3 cells after 3 days of incubation with the different (pro)-drugs DOX, DOX-alGA3, DOX-mPEG4-GA3 and DOX-mPEG7-GA3 in the presence or absence of bovine beta-glucuronidase(GUS).
The concentrations used for the prodrugs ranged from 0.001 μM to 50 μM, the GUS enzyme was added to give a final concentration of 10 units/μl. Adjacent to this, cells treated with the prodrugs were incubated without GUS. Incubation was conducted at 37° C. in a humidified, 5% CO2 incubator of three days. Cell growth is measured by crystal violet assay, untreated cells are set at 100%. The IC50 values found in these experiments are depicted in the table beneath.
The human ovarian cancer (OVCAR3) cell line was maintained in DMEM supplemented with 10% heat inactivated FBS and 1% P/S. Inhibition of proliferation of the OVCAR cell line by the doxorubicin prodrugs Dox-allyl, Dox-mGA3, Dox-mPEG4 and Dox-mPEG7 was determined using a crystal violet assay. The assay was preformed in a 96-wells plate. Cells that were harvested by trypsinisation were seeded with 5.000 cells in 100 μl medium per well. The 96-wells plate was incubated overnight at 37° C. in a humidified, 5% CO2 incubator. The different prodrugs were added in concentrations between 0.001 μM to 50 μM. Subsequently, the GUS enzyme was added to give a final concentration of 10 units/μl. This mixture was incubated at 37° C. in a humidified, 5% CO2 incubator for tree days. Subsequently, the cells were stained and fixed with 50 μl 1% crystal violet in 70% ethanol. The cells were washed with water and resolubilized in 100 μl 1% SDS. After this the absorbance was read at 550 nm. The blank extinction values were determined on wells in which no cells were seeded were subtracted from the signals. Inhibition concentrations 50% (IC50) were derived by plotting the inhibition of cell proliferation at different concentrations of the prodrug and non-linear curve fitting.

tumor bearing mice = settings: based on 10% weight loss, i.v.; cited from earlier work
[6] = tumor bearing mice, half of the MTD; cited from earlier work
[7] = bovine beta-glucuronidase 10 units/μL, read-out: IC50 (M) with GUS (10 units/μL)
[8] = no GUS, read-out: IC50 (M) No GUS

| SMILES | IC50 (OVCAR-3 cells; [7]) [M] | IC50 (OVCAR-3 cells; [8]) [M] | solubility in water (Solubility in water) | toxicity compared with doxorubicin (OVCAR-3 cells) | also measured |
| --- | --- | --- | --- | --- | --- |
| COC(=O)C1OC(OC(=O)Nc2ccc(COC(=O)NC3CC(OC4CC(O)(C(=O)CO)Cc5c(O)c6c(c(O)c54)C(=O)c4c(OC)cccc4C6=O)OC(C)C3O)cc2)C(O)C(O)C1O (centres unmarked) [DOX-mGA3] |  |  |  |  | solubility in water (in words, background) [1]: very bad solubility in water; half time of conversion to DOX-GA3 (carboxyl esterases [2]): approximately 05 min; pharmacokinetics in mice (in words) [3]: improved pharmacokinetics; time until completely hydrolyzed [4]: 24 h; solubility in water (in words) (Solubility in water): completely insoluble in water; half time of conversion to DOX-GA3 (carboxyl esterases [5]): ~2.5 h |
| C=CCOC(=O)C1OC(OC(=O)Nc2ccc(COC(=O)NC3CC(OC4CC(O)(C(=O)CO)Cc5c(O)c6c(c(O)c54)C(=O)c4c(OC)cccc4C6=O)OC(C)C3O)cc2)C(O)C(O)C1O (centres unmarked) [DOX-alGA3] | 5.84e-08 | 9.81e-06 |  | comparable toxicity as doxorubicin |  |
| COc1cccc2c1C(=O)c1c(O)c3c(c(O)c1C2=O)C[C@@](O)(C(=O)CO)C[C@@H]3O[C@H]1C[C@H](N)[C@H](O)[C@H](C)O1 [DOX, doxorubicin, reference compound] |  | 6.19e-08 |  |  | maximum tolerated dose (MTD) (tumor bearing mice): 8 mg/kg |
| COc1cccc2c1C(=O)c1c(O)c3c(c(O)c1C2=O)CC(O)(C(=O)CO)CC3OC1CC(NC(=O)OCc2ccc(NC(=O)OC3OC(C(=O)O)C(O)C(O)C3O)cc2)C(O)C(C)O1 (centres unmarked) [DOX-GA3] |  |  |  |  | maximum tolerated dose (MTD) (tumor bearing mice): approximately 500 mg/kg; concentrations of doxorubicin in plasma versus administration of doxorubicin [6]: significantly lower concentrations of doxorubine in plasma; concentrations of doxorubicin in tumor tissue versus administration of doxorubicin [6]: higher |

Second part, led by results:

| IC50 (OVCAR-3 cells; [7]) [M] | IC50 (OVCAR-3 cells; [8]) [M] | solubility in water (Solubility in water) | SMILES | toxicity compared with doxorubicin (OVCAR-3 cells) | also measured |
| --- | --- | --- | --- | --- | --- |
|  |  | more than 15 mg in 1 ml of water | COCCOCCOCCOCCOCCOCCOCCOCCOCCOCCOCCOCCn1cc(COC(=O)C2OC(OC(=O)Nc3ccc(COC(=O)NC4CC(OC5CC(O)(C(=O)CO)Cc6c(O)c7c(c(O)c65)C(=O)c5c(OC)cccc5C7=O)OC(C)C4O)cc3)C(O)C(O)C2O)nn1 (centres unmarked) [DOX-mPEG12GA3] |  |  |
| 6.21e-08 | 2.21e-05 | about 0.6 mg in 1 ml of water | COCCOCCOCCOCCn1cc(COC(=O)C2OC(OC(=O)Nc3ccc(COC(=O)NC4CC(OC5CC(O)(C(=O)CO)Cc6c(O)c7c(c(O)c65)C(=O)c5c(OC)cccc5C7=O)OC(C)C4O)cc3)C(O)C(O)C2O)nn1 (centres unmarked) [DOX-mPEG4-GA3] | comparable toxicity as doxorubicin |  |
| 7.74e-08 | 8.33e-06 | 2.5 mg in 1 ml of water | COCCOCCOCCOCCOCCOCCOCCn1cc(COC(=O)C2OC(OC(=O)Nc3ccc(COC(=O)NC4CC(OC5CC(O)(C(=O)CO)Cc6c(O)c7c(c(O)c65)C(=O)c5c(OC)cccc5C7=O)OC(C)C4O)cc3)C(O)C(O)C2O)nn1 (centres unmarked) [DOX-mPEG7-GA3] | slightly less toxic |  |
